As usually defined, the MIC50 is an inhibitory concentration at the 50% level, which refers to growth in some studies and to a panel of isolates in others. A lower MIC50 goes with greater potency. As a reminder, the MIC is the lowest concentration found to suppress growth. Low readings indicate greater potency, high ones weaker potency.

Each structure is given as a SMILES string. Converted amounts (≈) assume the structure as drawn.

The source of these data is patent US20180185408A1, “ANTIFUNGAL NYLON-3 POLYMERS AND COMBINATION THERAPY USING THEM TO TREAT FUNGAL INFECTIONS” (priority 2016, published 2018).

Data set [1] has as its system human red blood cells (hRBCs). Description: Hemolysis assay. Conditions: 1 hour.
Data set [2] concerns Cryptococcus amylolentus. Description: MIC100 against yeast (CLSI M27-A3). In kind it is cell-based.
Data set [3] deals with Trichophyton rubrum. Description: MIC100 against dermatophytes (modified CLSI M38-A). In kind it is cell-based. As to conditions: ATCC28188; Trichophyton rubrum isolate ATCC 28188. As to the method: (§1) The final group of fungi tested for sensitivity to nylon-3 polymers were dermatophytes. In contrast to the other filamentous fungi tested, three of these isolates were evaluated following a modified version of the CLSI M38-A methodology (using hyphal fragments in liquid culture, because of difficulties in obtaining conidia). […] Mixed efficacy of the nylon-3 polymers was observed across the four species of dermatophytes tested. […] The activity against P. destructans, the causative agent of White Nose syndrome in bats, and just one of many emerging fungal pathogens threatening wildlife is encouraging because there are few options at present for preventing the spread of this devastating pathogen. The facility with which nylon-3 polymers can be modified could provide opportunities for the development of topical agents with high specificity for particular fungi.

The subject of data set [4] is Trichophyton tonsurans. Description: MIC100 against dermatophytes (modified CLSI M38-A). In kind it is cell-based. Conditions: CBS112818; Trichophyton tonsurans isolate CBS 112818. The protocol:
as §1

Data set [5] deals with Microsporum canis. Kind of data set: MIC100 against dermatophytes (modified CLSI M38-A). In kind it is cell-based. Conditions: Microsporum canis isolate UW10. The protocol: as §1
For data set [6], the system named is Pseudogymnoascus destructans. Kind of data set: MIC100 against dermatophytes (conidia, 12°C, seven days). In kind it is cell-based. Conditions: Pseudogymnoascus destructans isolate ATC MYA-4855. As to the method: as §1
In data set [7] the test system is A. flavus. Description: MIC100 against species of the Aspergillus genus. In kind it is cell-based. Conditions: Aspergillus flavus isolate NRRL3357. The source says:
(§2) We assessed the antifungal activity of MM-TM, DM-TM, and NM against 18 different species within the genus Aspergillus.

Data set [8] deals with Aspergillus species. Description: MIC100 against 18 species of the Aspergillus genus. In kind it is cell-based, Aspergillus spp.
Excerpt: as §2

Consider `C[C@@H]1[C@H](O)[C@@H](C)/C=C/C=C/C=C/C=C/C=C/C=C/C=C/[C@H](O[C@@H]2O[C@H](C)[C@@H](O)[C@H](N)[C@@H]2O)C[C@@H]2O[C@](O)(C[C@@H](O)C[C@@H](O)[C@H](O)CC[C@@H](O)C[C@@H](O)CC(=O)O[C@H]1C)C[C@H](O)[C@H]2C(=O)O` [AMB, amphotericin B], for which, in data set [1], the “concentration causing 10% hemolysis (HC10)” value came out at 27 µM and the “concentration causing 50% lysis of hRBCs (HC50)” value was found to be 54 µM.

On to `OC(Cn1cncn1)(Cn1cncn1)c1ccc(F)cc1F` [FLC, fluconazole], for which the MIC50 is 16 µg/mL (≈ 52.2 µM) in data set [2] (CBS6039, Cryptococcus amolyentous CBS 6039) and 16 µg/mL (≈ 52.2 µM) in data set [2] (CBS6273, Cryptococcus amolyentous CBS 6273).

In the case of `CCC(C)n1ncn(-c2ccc(N3CCN(c4ccc(OCC5COC(Cn6cncn6)(c6ccc(Cl)cc6Cl)O5)cc4)CC3)cc2)c1=O` (stereo not shown) [Itraconazole, itraconazole], the MIC was 1 µg/mL (≈ 1.42 µM) in data set [3]; 0.13 µg/mL (≈ 0.184 µM) in data set [4]; 1 µg/mL (≈ 1.42 µM) in data set [5]; 0.13 µg/mL (≈ 0.184 µM) in data set [6]; less than 1 µg/mL in data set [7]; less than 1 µg/mL in data set [8] (Aspergillus aculeatus isolate CBS 172.66). Besides, the MIC in data set [8] (Aspergillus brasiliensis isolate CBS 101740) is 64 µg/mL (≈ 90.7 µM); in data set [8] (Aspergillus carbonarius isolate DT0115-B6) it was less than 1 µg/mL; in data set [8] (Aspergillus clavatus isolate CBS 513.65), 64 µg/mL (≈ 90.7 µM); in data set [8] (Aspergillus fumigatus isolate CEA10), less than 1 µg/mL; in data set [8] (Aspergillus glaucus isolate CBS 516.65), 2 µg/mL (≈ 2.83 µM); in data set [8] (Aspergillus nidulans isolate FGSCA4), less than 1 µg/mL. Also, the MIC in data set [8] (Aspergillus niger isolate CBS 113.46) was less than 1 µg/mL; in data set [8] (Aspergillus oryzae isolate Rib40), 1 µg/mL (≈ 1.42 µM); in data set [8] (Aspergillus parasiticus isolate Su-1), less than 1 µg/mL; in data set [8] (Aspergillus sydowii isolate CBS 593.65) it was 2 µg/mL (≈ 2.83 µM); in data set [8] (Aspergillus terreus isolate NCCB IH2626), less than 1 µg/mL; in data set [8] (Aspergillus versicolor isolate CBS 795.97) it was 1 µg/mL (≈ 1.42 µM). The minimum inhibitory concentration (MIC) is less than 1 µg/mL in data set [8] (Aspergillus wentii isolate DT0136-E9), less than 1 µg/mL in data set [8] (Aspergillus zonatus isolate CBS 506.65) and more than 8 µg/mL in data set [8] (Neosartorya fischeri isolate CBS 544.65).
